For orientation: IC50 means the point on the concentration scale where inhibition reaches its midpoint.

The text below walks through data of patent publication US12344623B2, “Thiazolopyridine derivatives as adenosine receptor antagonists” (Merck Patent GmbH, priority 2019, dated 2025).

Holding throughout (format): cell-based
The test system of assay [1] is mouse Pan T cells. The assay can be described thus: mTcell assay, IL-2, rescue of cytokine secretion, agonist NECA. The settings on record: Mus musculus, T-cell, 24 h. The text has this: Adenosine (Ado) in tumor microenvironment can inhibit T cell activity by signaling through A2A receptors and suppress cytokine secretion by T cells. […] Potential A2A antagonists or A2A/A2B dual antagonists can rescue T cells from this inhibition. Herein, we describe the in vitro system we established using Pan T cells from mouse spleens to screen potential A2A antagonists or A2A/A2B dual antagonists for their activity. The method described involves the use of CD3/CD28 pre-coated beads to stimulate Pan T cells purified from mouse splenocytes, combined with the addition of A2A agonist along with potential A2A or A2A/A2B dual antagonists to evaluate potentiation of T cell cytokine production.
Briefly, mouse Pan T cells are purified from spleens of BALB/c mice using Pan T cell isolation kit Mouse II (MACS Miltenyi biotech Cat # Order no. 130-095-130) according to manufacturer's protocol. The purified T cells are seeded in Nunc™ 96-Well Polystyrene Round Bottom Microwell Plates in RPMI medium with 10% heat inactivated fetal bovine serum. The cells are rested at 37° C. for 1 h before activating with CD3/CD28 pre-coated beads (Dynabeads™ Mouse T-Activator CD3/CD28; Cat #11456D). After 30 min the cells are treated with varying doses of test antagonist(s). […] After 24 h incubation IL-2 levels in the supernatants are measured by ELISAs according to manufacturer's protocol (R&D systems Cat #DY402 (IL-2)). Once the concentrations are calculated, the difference of cytokine concentration of DMSO control and agonist alone control is calculated and the percentage of rescue by each concentration of antagonist is calculated by using Microsoft Excel. These percentages of cytokine rescue in a dose dependent manner of antagonist is plotted in GraphPad Prism software and IC50 is calculated.

Assay [2] has as its target T1, human A2B receptor (Homo sapiens, UniProt P29275).
T1 construct: expressed in transfected cells; host or cells: HEK293
T1 sequence (P29275 1-332): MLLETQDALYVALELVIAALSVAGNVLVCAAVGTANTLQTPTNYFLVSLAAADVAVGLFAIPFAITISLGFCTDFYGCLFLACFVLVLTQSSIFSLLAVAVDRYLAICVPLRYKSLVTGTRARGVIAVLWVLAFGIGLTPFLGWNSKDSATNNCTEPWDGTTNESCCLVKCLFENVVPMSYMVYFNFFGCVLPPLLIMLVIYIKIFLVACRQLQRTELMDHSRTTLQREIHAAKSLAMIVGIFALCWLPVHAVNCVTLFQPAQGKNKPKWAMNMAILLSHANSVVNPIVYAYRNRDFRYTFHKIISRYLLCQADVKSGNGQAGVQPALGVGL
Nature of the assay: Functional A2B receptor activity, recombinant HEK293 cells, cAMP (HTRF), agonist NECA. To be noted: read-out: Functional A2B receptor activity, HEK293, cAMP, IC50. The procedure, abridged: (§1)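 Cellular cAMP measured by HTRF after 30 min incubation of cells with forskolin, test compounds and agonist. Data normalized to inhibitor control and DMSO neutral control, then curve-fitted.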

For assay [3], the system named is human T cells. Nature of the assay: hTcell data, IL-2 (human T cells, IL-2 readout; method not given). To be noted: T-cell, compounds of the present invention.
For assay [4], the target named is T2, human A1 receptor (Homo sapiens, UniProt P30542).
T2 construct: expressed in transfected cells; host or cells: CHO
T2 sequence (P30542 1-326): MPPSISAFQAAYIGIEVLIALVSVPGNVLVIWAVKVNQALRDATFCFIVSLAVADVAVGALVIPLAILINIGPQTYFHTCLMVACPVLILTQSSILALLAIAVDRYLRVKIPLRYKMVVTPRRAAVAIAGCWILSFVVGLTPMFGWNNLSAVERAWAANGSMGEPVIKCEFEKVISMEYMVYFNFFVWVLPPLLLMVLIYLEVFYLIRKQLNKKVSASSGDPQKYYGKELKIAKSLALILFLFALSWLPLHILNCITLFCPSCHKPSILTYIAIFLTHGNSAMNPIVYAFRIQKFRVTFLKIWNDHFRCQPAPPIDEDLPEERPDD
Nature of the assay: Functional A1 receptor activity, recombinant CHO cells, cAMP (HTRF), forskolin, agonist CPA. To be noted: recombinant CHO cells, forskolin, agonist CPA; read-out: Functional A1 receptor activity, CHO, cAMP, IC50. The procedure, abridged:
(§2)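 Recombinant CHO cells expressing A1 or A3 receptor (Gi-coupled) were stimulated with forskolin together with test compound and agonist (CPA for A1, IB-MECA for A3), incubated 30 min, then cellular cAMP was read by HTRF. Data were normalized to inhibitor control and DMSO neutral control, then curve-fitted.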
(TR-FRET usually uses a lanthanide donor and a delayed reading to cut background.)

Assay [5] concerns the target T3, human A3 receptor (Homo sapiens, UniProt P0DMS8).
T3 construct: expressed in transfected cells; host or cells: CHO
T3 sequence (P0DMS8 1-318): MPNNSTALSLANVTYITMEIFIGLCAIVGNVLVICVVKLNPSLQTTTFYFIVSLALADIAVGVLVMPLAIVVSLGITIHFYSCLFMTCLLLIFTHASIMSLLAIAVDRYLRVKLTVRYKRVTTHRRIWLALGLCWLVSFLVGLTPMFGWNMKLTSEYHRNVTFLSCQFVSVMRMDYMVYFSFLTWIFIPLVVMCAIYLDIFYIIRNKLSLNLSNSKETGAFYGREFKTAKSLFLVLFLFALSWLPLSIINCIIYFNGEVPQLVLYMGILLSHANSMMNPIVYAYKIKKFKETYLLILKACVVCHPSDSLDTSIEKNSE
The assay can be described thus: Functional A3 receptor activity, recombinant CHO cells, cAMP (HTRF), forskolin, agonist IB-MECA. The settings on record: recombinant CHO cells, forskolin, agonist IB-MECA; read-out: Functional A3 receptor activity, CHO, cAMP, IC50. In a few lines: as §2

The target in assay [6] is T4, human A2A receptor (Homo sapiens, UniProt P29274). The assay can be described thus: Human T cells, endogenous A2A receptor, cAMP, agonist NECA. The settings on record: read-out: hTcell data, cAMP, IC50. The procedure, abridged:
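Pan T cells isolated from fresh human blood PBMC, endogenously expressing Gs-coupled A2A, treated with compounds. Cellular cAMP measured by HTRF after 1 h; data normalized to inhibitor control and DMSO neutral control, then curve-fitted.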

For assay [7], the target named is T4, human A2A receptor. The assay can be described thus: Functional A2A receptor activity, recombinant HEK293 cells, cAMP (HTRF), agonist NECA. On the set-up: expressed in transfected cells; host or cells: HEK293. The settings on record: read-out: Functional A2A receptor activity, HEK293, cAMP, IC50. In a few lines: as §1
In assay [8] the test system is mouse Pan T cells. The assay can be described thus: mTcell assay, cAMP, agonist NECA. To be noted: Mus musculus, T-cell. The procedure, abridged:
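Mouse splenic Pan T cells, pre-activated 48 hours with anti-CD3/CD28 beads, then plated at 50,000 cells/well in serum-free medium with 0.1% BSA. Compounds tested in 10-point dose response from 10 uM; after 30 minutes at 37° C, cAMP measured by HTRF.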

T4 sequence (P29274 whole entry): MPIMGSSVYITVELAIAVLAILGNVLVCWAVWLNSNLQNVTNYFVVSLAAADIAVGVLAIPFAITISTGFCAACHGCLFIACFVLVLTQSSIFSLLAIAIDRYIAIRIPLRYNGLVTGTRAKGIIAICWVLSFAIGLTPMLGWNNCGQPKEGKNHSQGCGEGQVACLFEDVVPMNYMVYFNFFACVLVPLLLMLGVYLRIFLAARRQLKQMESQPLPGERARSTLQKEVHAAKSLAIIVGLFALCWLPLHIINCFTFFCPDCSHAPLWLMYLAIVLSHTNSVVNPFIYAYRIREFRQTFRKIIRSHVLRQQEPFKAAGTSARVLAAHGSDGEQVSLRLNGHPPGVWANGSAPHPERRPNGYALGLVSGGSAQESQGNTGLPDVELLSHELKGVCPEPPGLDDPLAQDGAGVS

Turning to `COc1ncc(-c2cccc(N)c2)c2sc(NC(=O)N3CCC4(CCOCC4)C3)nc12` [Compound 39, 8-Oxa-2-aza-spiro[4.5]decane-2-carboxylic acid [7-(3-amino-phenyl)-4-methoxy-thiazolo[4,5-c]pyridin-2-yl]-amide], the IC50 in assay [1] was under 10 nM; in assay [2], under 10 nM; in assay [3] it was under 100 nM; in assay [4] it was over 1000 nM; in assay [5], over 1000 nM; in assay [6], under 10 nM. The IC50 in assay [7] and in assay [8] was under 10 nM throughout.

As for `COc1nc(F)c(-c2ccccc2)c2sc(NC(=O)N3CC[C@]4(CCCOC4)C3)nc12` [Compound 12, (R)-7-Oxa-2-aza-spiro[4.5]decane-2-carboxylic acid (6-fluoro-4-methoxy-7-phenyl-thiazolo[4,5-c]pyridin-2-yl)-amide], the IC50 was under 10 nM in assay [1]; under 10 nM in assay [2]; under 10 nM in assay [3]; under 1000 nM in assay [4]; over 1000 nM in assay [5]; under 10 nM in assay [6]. In addition, the IC50 in assay [7] and in assay [8] was under 10 nM throughout.

Consider `COc1nc(F)c(-c2ccc(F)cc2)c2sc(NC(=O)N3CCC4(CCOCC4)C3)nc12` [Compound 29, 8-Oxa-2-aza-spiro[4.5]decane-2-carboxylic acid [6-fluoro-7-(4-fluoro-phenyl)-4-methoxy-thiazolo[4,5-c]pyridin-2-yl]-amide], for which the concentration for half-maximal inhibition (IC50) in assay [1] was under 10 nM; in assay [2], under 10 nM; in assay [3], under 10 nM; in assay [4], over 1000 nM; in assay [5], over 1000 nM; in assay [6] it was under 10 nM. Also, the IC50 in assay [7] and in assay [8] was under 10 nM in each case.

In the case of `COc1nc(F)c(C2CCOCC2)c2sc(NC(=O)N3CC[C@@]4(CCCOC4)C3)nc12` [Compound 35, (5S)-N-[6-fluoro-4-methoxy-7-(oxan-4-yl)-[1,3]thiazolo[4,5-c]pyridin-2-yl]-7-oxa-2-azaspiro[4.5]decane-2-carboxamide], the IC50 in assay [1] is under 10 nM; in assay [2], under 100 nM; in assay [3], under 100 nM; in assay [4] it was over 1000 nM; in assay [5] it was over 1000 nM; in assay [6], under 10 nM. Further, the IC50 in assay [7] and in assay [8] was under 10 nM in each case.

Turning to `COc1nc(F)c(N2CCOCC2)c2sc(NC(=O)N3CC[C@]4(CCOC4)C3)nc12` [Compound 19, (5S)-N-[6-fluoro-4-methoxy-7-(morpholin-4-yl)-[1,3]thiazolo[4,5-c]pyridin-2-yl]-2-oxa-7-azaspiro[4.4]nonane-7-carboxamide], the half-maximal inhibitory concentration (IC50) in assay [1] was under 100 nM; in assay [2], under 100 nM; in assay [3], under 100 nM; in assay [4], over 1000 nM; in assay [5], over 1000 nM; in assay [6], under 10 nM. For the same molecule, the 50% inhibitory concentration (IC50) in assay [7] was under 10 nM; in assay [8], under 100 nM.

With `COc1nc(F)c(C2CCOCC2)c2sc(NC(=O)N3CCC4(CCOCC4)C3)nc12` [Compound 26, 8-Oxa-2-aza-spiro[4.5]decane-2-carboxylic acid [6-fluoro-4-methoxy-7-(tetrahydro-pyran-4-yl)-thiazolo[4,5-c]pyridin-2-yl]-amide], the IC50 in assay [1] is under 10 nM; in assay [2], under 100 nM; in assay [3] it was under 100 nM; in assay [4] it was over 1000 nM; in assay [5] it was over 1000 nM; in assay [6], under 10 nM. Further, the 50% inhibitory concentration (IC50) in assay [7] and in assay [8] was under 10 nM each time.

`COc1nc(F)c(C2CCOCC2)c2sc(NC(=O)c3ccc(C(=O)N(C)C)cc3)nc12` [Compound 20, N-[6-Fluoro-4-methoxy-7-(tetrahydro-pyran-4-yl)-thiazolo[4,5-c]pyridin-2-yl]-N′,N′-dimethyl-terephthalamide]: the IC50 was under 100 nM in assay [1]; under 10 nM in assay [2]; under 10 nM in assay [3]; over 1000 nM in assay [4]; over 1000 nM in assay [5]; under 10 nM in assay [6]. In addition, the values for the IC50 in assay [7] and in assay [8] were under 10 nM and under 100 nM, respectively.
